Literature values in publication PMC12690571, “Green Synthesis of a Hyaluronan-Based Multimeric A9 Peptide System: Polysaccharide-A9 Conjugate with Enhanced HER2 Receptor Binding Affinity and Potential Biomedical Applications as an Active Material” (Biomacromolecules, 2025).

Tested on: HER2 receptor
Design: method as in not printed at the place
Conditions: A9 peptide; introduction, earlier work, ref not given

- binding affinity to HER2 receptor (in words): binds with high affinity
Substance: H-QDVNTAVAW-NH2 [A9]
